Results reported in US8710233B2 (Gruenenthal GmbH, priority 2005, dated 2014).
Where two headings read alike, the source gives them in different places.

Key:
Format in all cases: cell-based
[1] = target: T1, vanilloid receptor 1 (VR1/TRPV1) of the rat species (Rattus norvegicus, UniProt O35433); assay: FLIPR Ca2+ influx assay on rat dorsal root ganglia cells (pharmacological method I)
T1 construct: The spinal column is removed from decapitated rats; from tissue; host or cells: primary cells dissociated from rat dorsal root ganglia
Outline: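 Primary rat dorsal root ganglion cells loaded with 2 μM Fluo-4, Ca2+ influx read on FLIPR as peak fluorescence. Triplicates, at least 3 independent experiments.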

[2] = target: T2, vanilloid receptor (VR1) (Homo sapiens, UniProt Q8NER1); assay: FLIPR Ca2+ influx assay on CHO K1 cells transfected with the VR1 gene (pharmacological method II)
T2 construct: expressed in transfected cells; host or cells: CHO K1 cells (ECACC), stably transfected

[3] = target: VR1/TRPV1 receptor (Homo sapiens, UniProt Q8NER1); assay: IC50 (human) after pH stimulus; conditions: for inhibition at 0.1 µM / inhibition at 1 µM / inhibition at 10 µM: read-out: inhibition in percent, IC50 (human) after pH stimulus; for inhibition at 1 µM / inhibition in percent, IC50 (human) after pH stimulus: ne = no effect, @ 1 μM
[4] = table 4, capsaicin, read-out: Ki (rat) Cap.
[5] = table 4, capsaicin, read-out: Ki (human) Cap.
[6] = Table 2, displacement of capsaicin (100 nM), Cheng-Prusoff, read-out: Ki (rat)
[7] = Table 2, displacement of capsaicin (100 nM), Cheng-Prusoff, read-out: Ki (human)
[8] = Ki (rat) Cap., table 4, capsaicin

T1 sequence (O35433 whole entry): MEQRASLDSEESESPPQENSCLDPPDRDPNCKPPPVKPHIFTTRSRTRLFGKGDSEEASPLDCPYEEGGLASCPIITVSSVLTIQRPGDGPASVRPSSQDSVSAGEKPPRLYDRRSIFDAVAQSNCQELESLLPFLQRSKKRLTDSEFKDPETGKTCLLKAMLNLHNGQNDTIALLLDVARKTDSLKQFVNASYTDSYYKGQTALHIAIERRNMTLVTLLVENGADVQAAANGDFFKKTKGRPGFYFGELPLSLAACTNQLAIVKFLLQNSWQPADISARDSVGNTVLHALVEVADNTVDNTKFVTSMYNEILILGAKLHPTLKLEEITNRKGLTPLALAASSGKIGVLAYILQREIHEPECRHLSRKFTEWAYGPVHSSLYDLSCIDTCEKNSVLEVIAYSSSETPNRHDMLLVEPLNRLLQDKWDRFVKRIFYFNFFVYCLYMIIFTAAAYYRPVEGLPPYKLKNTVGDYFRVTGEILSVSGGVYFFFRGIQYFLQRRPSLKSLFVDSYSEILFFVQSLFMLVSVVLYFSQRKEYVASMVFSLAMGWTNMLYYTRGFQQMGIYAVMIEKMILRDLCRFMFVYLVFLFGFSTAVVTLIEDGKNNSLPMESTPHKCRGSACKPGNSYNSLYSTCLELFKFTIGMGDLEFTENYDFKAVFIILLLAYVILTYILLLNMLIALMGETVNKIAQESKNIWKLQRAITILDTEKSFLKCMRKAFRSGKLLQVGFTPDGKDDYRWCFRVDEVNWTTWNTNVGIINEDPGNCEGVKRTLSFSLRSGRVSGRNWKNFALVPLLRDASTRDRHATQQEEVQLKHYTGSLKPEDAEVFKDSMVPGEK
T2 sequence (Q8NER1 whole entry): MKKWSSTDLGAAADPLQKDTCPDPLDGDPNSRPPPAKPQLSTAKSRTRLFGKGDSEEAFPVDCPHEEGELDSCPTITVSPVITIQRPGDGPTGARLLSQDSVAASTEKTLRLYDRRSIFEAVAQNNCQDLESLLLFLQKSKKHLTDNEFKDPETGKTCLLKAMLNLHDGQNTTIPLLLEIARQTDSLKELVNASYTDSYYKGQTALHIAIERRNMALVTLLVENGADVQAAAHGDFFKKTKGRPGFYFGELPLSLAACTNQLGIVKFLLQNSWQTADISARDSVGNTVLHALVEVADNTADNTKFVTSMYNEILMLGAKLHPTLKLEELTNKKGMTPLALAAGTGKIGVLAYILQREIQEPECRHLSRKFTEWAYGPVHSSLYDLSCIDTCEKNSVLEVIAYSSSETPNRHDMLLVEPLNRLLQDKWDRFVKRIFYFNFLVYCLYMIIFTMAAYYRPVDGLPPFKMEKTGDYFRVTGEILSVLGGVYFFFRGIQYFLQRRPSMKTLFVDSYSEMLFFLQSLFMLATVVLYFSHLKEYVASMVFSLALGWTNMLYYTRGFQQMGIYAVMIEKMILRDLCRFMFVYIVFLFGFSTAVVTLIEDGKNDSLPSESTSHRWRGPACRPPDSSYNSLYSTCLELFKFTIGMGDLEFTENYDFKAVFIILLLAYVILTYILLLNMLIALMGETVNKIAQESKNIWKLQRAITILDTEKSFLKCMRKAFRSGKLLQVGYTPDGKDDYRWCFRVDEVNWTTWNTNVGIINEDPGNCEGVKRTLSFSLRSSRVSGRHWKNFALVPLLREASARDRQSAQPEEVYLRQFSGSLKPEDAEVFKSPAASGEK
VR1/TRPV1 receptor, sequence (Q8NER1 whole entry): as above

SMILES: CC(C(=O)NCc1ccc(C(F)(F)F)cc1N1CCC(Cc2ccccc2)CC1)c1ccc(NS(C)(=O)=O)c(F)c1 (stereo not drawn) [Example 231, N-[2-(4-benzyl-piperidin-1-yl)-4-trifluoromethyl-benzyl]-2-(3-fluoro-4-methylsulfonamido-phenyl)-propionamide]
- Ki [1, 4]: 0.8 nM
- Ki [2, 5]: 1.4 nM
- IC50 ([3]; table 4): 37.6 nM

SMILES: C[C@@H](C(=O)NCc1ccc(C(F)(F)F)nc1N1CCCCC1)c1ccc(NS(C)(=O)=O)c(F)c1 [Example 11, (R)-2-(3-fluoro-4-(methylsulfonamido)phenyl)-N-((2-(piperidin-1-yl)-6-(trifluoromethyl)pyridin-3-yl)methyl)propanamide]
- Ki [1, 6]: 1.1 nM
- Ki [2, 7]: 0.3 nM
- IC50 ([3]; Table 2): 46.7 nM

SMILES: CC(C(=O)NCc1ccc(C(F)(F)F)nc1N1CCN(c2ncccc2C(F)(F)F)CC1)c1ccc(NS(C)(=O)=O)c(F)c1 (stereo not drawn) [Example 212, 2-(3-fluoro-4-methylsulfonamido-phenyl)-N-{6-trifluoromethyl-2-[4-(3-trifluoromethyl-pyridin-2-yl)-piperazin-1-yl]-pyridin-3-ylmethyl}-propionamide]
- Ki [1, 4]: 3.6 nM
- Ki [2, 5]: 4.2 nM
- inhibition at 0.1 µM [3]: 11%
- inhibition at 1 µM [3]: 33%

SMILES: CC(C(=O)NCc1ccc(C(F)(F)F)cc1Cl)c1ccc(NS(C)(=O)=O)c(F)c1 (stereo not drawn) [Example 75, N-(2-chloro-4-(trifluoromethyl)benzyl)-2-(3-fluoro-4-(methylsulfonamido)phenyl)propanamide]
- Ki [1, 6]: 12.9 nM
- Ki [2, 7]: 4 nM
- IC50 ([3]; Table 2): 1210 nM

SMILES: Cc1ccc(N2CCN(c3nc(C(F)(F)F)ccc3CNC(=O)C(C)c3ccc(NS(C)(=O)=O)c(F)c3)CC2)cc1 (stereo not drawn) [Example 219, 2-(3-fluoro-4-methylsulfonamido-phenyl)-N-[2-(4-p-tolyl-piperazin-1-yl)-6-trifluoromethyl-pyridin-3-ylmethyl]-propionamide]
- Ki [1, 4]: 2.4 nM
- Ki [2, 5]: 3.3 nM
- IC50 ([3]; table 4): 38.3 nM

SMILES: CC1CCN(c2nc(C(F)(F)F)ccc2CCNC(=O)C(C)c2ccc(NS(C)(=O)=O)c(F)c2)CC1 (stereo not drawn) [Example 284, 2-(3-fluoro-4-methylsulfonamido-phenyl)-N-[2-(4-methyl-6′-trifluoromethyl-3,4,5,6-tetrahydro-2H-[1,2′]bipyridinyl-3′-yl)-ethyl]-propionamide]
- Ki [1, 4]: 48 nM
- Ki [2, 5]: 54.9 nM
- inhibition in percent, IC50 (human) after pH stimulus [3]: ne @ 1 μM

SMILES: CC(C(=O)NCc1ccc(C(F)(F)F)nc1N1CCN(c2ccccn2)CC1)c1ccc(NS(C)(=O)=O)c(F)c1 (stereo not drawn) [Example 214, 2-(3-fluoro-4-methylsulfonamido-phenyl)-N-[2-(4-pyridin-2-yl-piperazin-1-yl)-6-trifluoromethyl-pyridin-3-ylmethyl]-propionamide]
- Ki [1, 4]: 1.5 nM
- Ki [2, 5]: 1.4 nM
- IC50 ([3]; table 4): 108 nM

SMILES: CCCCCCOc1nc(C(C)(C)C)ccc1CNC(=O)C(C)c1ccc(NS(C)(=O)=O)c(F)c1 (stereo not drawn) [Example 236, N-(6-tert-butyl-2-hexyloxy-pyridin-3-ylmethyl)-2-(3-fluoro-4-methylsulfonamido-phenyl)-propionamide]
- Ki [1, 4]: 1.4 nM
- Ki [2, 5]: 2.7 nM
- inhibition at 1 µM [3]: 76%
- inhibition at 10 µM [3]: 69%

SMILES: CC(=O)OC1CCN(c2nc(C(F)(F)F)ccc2CNC(=O)C(C)c2ccc(NS(C)(=O)=O)c(F)c2)CC1 (stereo not drawn) [Example 158, acetic acid 3′-{[2-(3-fluoro-4-methylsulfonamido-phenyl)-propionylamino]-methyl}-6′-trifluoromethyl-3,4,5,6-tetrahydro-2H-[1,2′]bipyridinyl-4-yl ester]
- Ki [1, 4]: 12.6 nM
- Ki [2, 5]: 4 nM
- IC50 ([3]; table 4): 139 nM

SMILES: CC(C(=O)NCc1ccc(C(C)(C)C)nc1OC1CCCCC1)c1ccc(NS(C)(=O)=O)c(F)c1 (stereo not drawn) [Example 233, N-(6-tert-butyl-2-cyclohexyloxy-pyridin-3-ylmethyl)-2-(3-fluoro-4-methylsulfonamido-phenyl)-propionamide]
- Ki [1, 4]: 1.4 nM
- Ki [2, 5]: 2.5 nM
- inhibition at 1 µM [3]: 50%
- inhibition at 10 µM [3]: 63%

SMILES: CC(C(=O)NCc1ccc(C(F)(F)F)nc1N1CCC(OC(=O)C(C)(C)C)CC1)c1ccc(NS(C)(=O)=O)c(F)c1 (stereo not drawn) [Example 226, 2,2-dimethyl-propionic acid 3′-{[2-(3-fluoro-4-methylsulfonamido-phenyl)-propionylamino]-methyl}-6′-trifluoromethyl-3,4,5,6-tetrahydro-2H-[1,2′]bipyridinyl-4-yl ester]
- Ki [1, 4]: 1.5 nM
- Ki [2, 5]: 2 nM
- IC50 ([3]; table 4): 45.2 nM

SMILES: CC1CCN(c2nc(C(F)(F)F)ccc2CNC(=O)C(C)c2ccc(NS(=O)(=O)N(C)C)c(F)c2)CC1 (stereo not drawn) [Example 288, 2-(4-dimethylaminsulfonylamino-3-fluoro-phenyl)-N-(4-methyl-6′-trifluoromethyl-3,4,5,6-tetrahydro-2H-[1,2′]bipyridinyl-3′-ylmethyl)-propionamide]
- Ki [1, 4]: 41 nM
- Ki [2, 5]: 42 nM
- inhibition in percent, IC50 (human) after pH stimulus [3]: ne @ 1 μM

SMILES: CCC1CCN(c2nc(C(F)(F)F)ccc2CNC(=O)C(C)c2ccc(NS(C)(=O)=O)c(F)c2)CC1 (stereo not drawn) [Example 197, N-(4-ethyl-6′-trifluoromethyl-3,4,5,6-tetrahydro-2H-[1,2′]bipyridinyl-3′-ylmethyl)-2-(3-fluoro-4-methylsulfonamido-phenyl)-propionamide]
- Ki [1, 4]: 0.4 nM
- Ki [2, 5]: 1.5 nM
- IC50 ([3]; table 4): 97.3 nM

SMILES: CC(C(=O)NCc1ccc(C(F)(F)F)nc1OCC1CCCC1)c1ccc(NS(C)(=O)=O)c(F)c1 (stereo not drawn) [Example 161, N-(2-cyclopentylmethoxy-6-trifluoromethyl-pyridin-3-ylmethyl)-2-(3-fluoro-4-methylsulfonamido-phenyl)-propionamide]
- Ki [1, 8]: 0.7 nM
- Ki [2, 5]: 0.4 nM
- IC50 ([3]; table 4): 11.6 nM

SMILES: CC(C(=O)NCc1ccc(C(F)(F)F)nc1OCc1ccccn1)c1ccc(NS(C)(=O)=O)c(F)c1 (stereo not drawn) [Example 202, 2-(3-fluoro-4-methylsulfonamido-phenyl)-N-[2-(pyridin-2-ylmethoxy)-6-trifluoromethyl-pyridin-3-ylmethyl]-propionamide]
- Ki [1, 8]: 24.8 nM
- Ki [2, 5]: 29.5 nM
- inhibition at 0.1 µM [3]: 16%
- inhibition at 1 µM [3]: 30%

SMILES: CCCCCc1nc(C(F)(F)F)ccc1CNC(=O)C(C)c1ccc(NS(C)(=O)=O)c(F)c1 (stereo not drawn) [Example 142, 2-(3-fluoro-4-methylsulfonamido-phenyl)-N-(2-pentyl-6-trifluoromethyl-pyridin-3-ylmethyl)-propionamide]
- Ki [1, 4]: 1.2 nM
- Ki [2, 5]: 1 nM
- IC50 ([3]; table 4): 8.9 nM

SMILES: CC(C(=O)NCc1ccc(C(C)(C)C)nc1N1CCCC1)c1ccc(NS(C)(=O)=O)c(F)c1 (stereo not drawn) [Example 240, N-(6-tert-butyl-2-pyrrolidin-1-yl-pyridin-3-ylmethyl)-2-(3-fluoro-4-methansulfonylamino-phenyl)-propionamide]
- Ki [1, 4]: 5.3 nM
- Ki [2, 5]: 1.2 nM
- inhibition at 0.1 µM [3]: 12%
- inhibition at 1 µM [3]: 43%

SMILES: CC(C(=O)NCc1ccc(C(F)(F)F)nc1N1CCN(c2ccccc2F)CC1)c1ccc(NS(C)(=O)=O)c(F)c1 (stereo not drawn) [Example 201, 2-(3-fluoro-4-methylsulfonamido-phenyl)-N-{2-[4-(2-fluoro-phenyl)-piperazin-1-yl]-6-trifluoromethyl-pyridin-3-ylmethyl}-propionamide]
- Ki [1, 4]: 1.2 nM
- Ki [2, 5]: 2.4 nM
- IC50 ([3]; table 4): 34 nM

SMILES: CC1CCN(c2nc(C(C)(C)C)ccc2CNC(=O)C(C)c2ccc(NS(C)(=O)=O)c(F)c2)CC1 (stereo not drawn) [Example 241, N-(6′-tert-butyl-4-methyl-3,4,5,6-tetrahydro-2H-[1,2′]bipyridinyl-3′-ylmethyl)-2-(3-fluoro-4-methylsulfonamido-phenyl)-propionamide]
- Ki [1, 4]: 0.5 nM
- Ki [2, 5]: 1.9 nM
- inhibition at 0.1 µM [3]: 34%
- inhibition at 1 µM [3]: 79%

SMILES: CC(C(=O)NCc1ccc(C(F)(F)F)nc1OCc1ccc(C(F)(F)F)cc1)c1ccc(NS(C)(=O)=O)c(F)c1 (stereo not drawn) [Example 206, 2-(3-fluoro-4-methylsulfonamido-phenyl)-N-[6-trifluoromethyl-2-(4-trifluoromethyl-benzyloxy)-pyridin-3-ylmethyl]-propionamide]
- Ki [1, 8]: 0.7 nM
- Ki [2, 5]: 3.2 nM
- IC50 ([3]; table 4): 66.1 nM

SMILES: CC(C(=O)NCc1ccc(C(C)(C)C)cc1C#N)c1ccc(NS(C)(=O)=O)c(F)c1 (stereo not drawn) [Example 70, N-(4-tert-butyl-2-cyanobenzyl)-2-(3-fluoro-4-(methylsulfonamido)-phenyl)propanamide]
- Ki [1, 6]: 9 nM
- Ki [2, 7]: 15.5 nM
- IC50 ([3]; Table 2): 1490 nM

SMILES: CCCCN(CCCC)c1nc(C(F)(F)F)ccc1CNC(=O)C(C)c1ccc(NS(C)(=O)=O)c(F)c1 (stereo not drawn) [Example 183, N-(2-dibutylamino-6-trifluoromethyl-pyridin-3-ylmethyl)-2-(3-fluoro-4-methylsulfonamido-phenyl)-propionamide]
- Ki [1, 4]: 0.7 nM
- Ki [2, 5]: 0.6 nM
- IC50 ([3]; table 4): 10.5 nM

SMILES: CC(C(=O)NCc1ccc(C(F)(F)F)nc1N1CCOCC1)c1ccc(NS(C)(=O)=O)c(F)c1 (stereo not drawn) [Example 12, 2-(3-fluoro-4-(methylsulfonamido)phenyl)-N-((2-morpholino-6-(trifluoromethyl)pyridin-3-yl)methyl)propanamide]
- Ki [1, 6]: 4.3 nM
- Ki [2, 7]: 1.3 nM
- IC50 ([3]; Table 2): 169 nM

SMILES: CC(C(=O)NCc1ccc(C(F)(F)F)nc1OCc1ccc(C(C)(C)C)cc1)c1ccc(NS(C)(=O)=O)c(F)c1 (stereo not drawn) [Example 244, N-[2-(4-tert-butyl-benzyloxy)-6-trifluoromethyl-pyridin-3-ylmethyl]-2-(3-fluoro-4-methylsulfonamido-phenyl)-propionamide]
- Ki [1, 8]: 1.1 nM
- Ki [2, 5]: 2.1 nM
- IC50 ([3]; table 4): 182 nM
